In ChEMBL document CHEMBL3352029, “Ring fusion strategy for the synthesis of anthra[2,3-d]oxazole-2-thione-5,10-dione homologues as DNA topoisomerase inhibitors and as antitumor agents” (Eur J Med Chem, 2014):

Assay: Cytotoxicity against human PC3 cells assessed as inhibition of cell growth after 48 hrs by sulforhodamine B assay
Format: functional, cell-based
Conditions: PC-3, 48 h

Row | Structure (SMILES) | IC50
1 | CCCSc1nc2cc3c(cc2o1)C(=O)c1ccccc1C3=O | > 30 µM
2 | O=C(CN1CCOCC1)Nc1cc2c(cc1O)C(=O)c1ccccc1C2=O | > 30 µM
3 | O=C1c2ccccc2C(=O)c2cc3oc(SCc4ccc(F)cc4F)nc3cc21 | > 30 µM
4 | O=C1c2ccccc2C(=O)c2cc3oc(SCCN4CCCCC4)nc3cc21 | 21.8 µM
5 | O=C1c2ccccc2C(=O)c2cc3oc(SCc4ccccc4[N+](=O)[O-])nc3cc21 | > 30 µM
6 | O=C(CCN1CCCCC1)Nc1cc2c(cc1O)C(=O)c1ccccc1C2=O | > 30 µM
7 | O=C1COc2cc3c(cc2N1)C(=O)c1ccccc1C3=O | > 30 µM
8 | CSc1nc2cc3c(cc2o1)C(=O)c1ccccc1C3=O | > 30 µM
9 | CCN(CC)CC(=O)Nc1cc2c(cc1O)C(=O)c1ccccc1C2=O | 20.2 µM
10 | O=C1c2ccccc2C(=O)c2cc3oc(SCCN4CCOCC4)nc3cc21 | > 30 µM
11 | O=C(CCN1CCOCC1)Nc1cc2c(cc1O)C(=O)c1ccccc1C2=O | > 30 µM
12 | O=C(CN1CCCCC1)Nc1cc2c(cc1O)C(=O)c1ccccc1C2=O | 18.5 µM
13 | CCCCSc1nc2cc3c(cc2o1)C(=O)c1ccccc1C3=O | > 30 µM
